Where two headings read alike, the source gives them in different places.
Key:
ERα [1] = biological target: ERα (Homo sapiens, UniProt P03372)
Method: (§1) Yeast two-hybrid experiments are carried out in the yeast strain (MATa; his3-Δ200; leu2-3,112; trp1-901; [plexAop]4::HIS3; [plexAop]8::lacZ), in which expression of the two reporter genes HIS3 and LacZ is under the control of the LexA operator sequence. This yeast strain cannot grow in absence of histidine in the culture medium, and yeast growth can be rescued only if expression of HIS3 gene is induced. Similarly, the LacZ reporter gene encoding the β-galactosidase marker is not expressed in this yeast strain. The bait plasmids encoding either the full-length or a region of the target protein (Nuclear Receptor, viral proteins for example), and the random peptide/VP16-AD library were transformed into the yeast strain and yeast colonies growing in absence of histidine were selected. […] Growth of false positive clones may be prevented by adding 3-amino-triazole (3AT), a competitive inhibitor of HIS3, to the medium. […] All conformation sensitive peptides dissociated by both target protein agonists and antagonists were selected for further characterization with the aim to develop screening platforms that allow the search of both activators and inhibitors of target protein in one single assay. The biological activity of each isolated conformation sensitive peptide is reconfirmed by isolation of conformation sensitive peptide encoding plasmids, re-transformation into yeast strain and analysis of HIS3 and lacZ gene expression in absence of histidine and in presence of target protein or non-target protein ligands in a spot test, as well as in a quantitative LacZ assay. 4.1—Identification in Yeast of Conformation Sensitive Peptides Interacting with the Estrogen Receptor
The bait plasmids encoding the full length or the DEF regions of the ERα and the prey peptide/VP16-AD VV01 library (diversity of 6.10^7) were transformed into the yeast strain. Yeast colonies growing in absence of histidine were selected. […] Growth of false positive clones was prevented by adding 3-amino-triazole (3AT), a competitive inhibitor of HIS3 to the medium. […] Out of the 484 clones, 40 were randomly picked for further studies.
The biological activity of each isolated 3D-Screen peptide was reconfirmed by isolation of 3D-Screen encoding plasmids, retransformation into the yeast strain (MATa; his3-Δ200; leu2-3,112; trp1-901; [plexAop]4::HIS3; [plexAop]8::lacZ) and analysis of HIS3 and lacZ gene expression in absence of Histidine and in presence of ER or non-ER ligands in a spot test.

ERα [2] = system: ERα
Source text: FIG. 10: Generation of a 3D-screen human cell screening platform for ERα Hela cells are transiently transfected with three expression plasmids encoding the reporter gene luciferase (eg. UAS-Luc), the target protein fused to a DNA Binding Domain (DBD) and the conformation sensitive peptide previously screened in yeast and fused to the VP16-AD, respectively with the jetPEI reagent. […] This platform was used to screen a small molecule library.
Hela cells are transiently transfected with three expression plasmids encoding the reporter gene luciferase (eg. UAS-Luc), the ERα fused to a DNA Binding Domain (DBD) and the conformation sensitive peptide previously screened in yeast and fused to the VP16-AD, respectively, with the jetPEI reagent. Cells are grown in the absence of any ligand (DMSO, lane 1; ethanol, lane 2), or in the presence of ER ligands (agonists E2, DES or antagonists 4OHT, lane 3-5) or non-ER ligands (Dex and 9C-RA; lanes 8 & 9), or in the presence of Estren (lane 6) at 100 nM (right panel) and 10 μM (left panel).
Hela cells are transiently transfected with three expression plasmids encoding the reporter gene luciferase (eg. UAS-Luc), the ERα fused to a DNA Binding Domain (DBD) and the conformation sensitive peptide previously screened in yeast and fused to the VP16-AD, respectively, with the jetPEI reagent.
HeLa cells were transiently transfected with plasmid using the optimized jetPEI transfection protocol (PolyPlus Transfection, Illkirch, France). […] Chemical ligands are added to the cell culture medium 24H after transfection. Luciferase activity was measured 24H later. […] Cells are trypsinised and plated in 96 well-plates (or 384 well-plates) at 5×10^4 cells per well 24H after transfection, and small molecules are added upon cell adhesion. Luciferase activity is measured 24 H later.
The three expression plasmids, UAS-luc, full-length ER and 3D-screen/VP16AD (#30-2) were co-transfected in Hela cells in large dishes. Cells were then reseeded in a 96-well plate format 24 H after transfection and chemical compounds are added upon cell adhesion. Luciferase activity was measured 24 H later. Internal controls were also included, consisting in known ER- or non-ER ligands as previously indicated.

[3] = biological target: human retinoic acid receptor alpha (RARα) (Homo sapiens, UniProt P10276); conditions: RAR-DEF bait, 28 selected clones, medium without histidine
Chain of human retinoic acid receptor alpha (RARα) (P10276 183-417 limits assumed): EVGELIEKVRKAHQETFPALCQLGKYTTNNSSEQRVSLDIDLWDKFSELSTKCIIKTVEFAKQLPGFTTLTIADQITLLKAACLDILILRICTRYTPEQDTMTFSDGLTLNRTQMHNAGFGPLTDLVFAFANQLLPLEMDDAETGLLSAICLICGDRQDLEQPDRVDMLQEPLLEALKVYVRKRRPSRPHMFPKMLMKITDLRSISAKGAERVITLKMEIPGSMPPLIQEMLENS
Method: as §1

[4] = biological target: NS5B protein of Hepatitis C virus (Hepatitis C virus genotype 1b, UniProt P26663); conditions: NS5BΔ21 bait, medium without Histidine; Gliotoxin 20 μM
Method: Yeast two-hybrid experiments are carried out in the yeast strain (MATa; his3-Δ200; leu2-3,112; trp1-901; [plexAop]4::HIS3; [plexAop]8::lacZ), in which expression of the two reporter genes HIS3 and LacZ is under the control of the LexA operator sequence. This yeast strain cannot grow in absence of histidine in the culture medium, and yeast growth can be rescued only if expression of HIS3 gene is induced. Similarly, the LacZ reporter gene encoding the β-galactosidase marker is not expressed in this yeast strain. The bait plasmids encoding either the full-length or a region of the target protein (Nuclear Receptor, viral proteins for example), and the random peptide/VP16-AD library were transformed into the yeast strain and yeast colonies growing in absence of histidine were selected. […] Growth of false positive clones may be prevented by adding 3-amino-triazole (3AT), a competitive inhibitor of HIS3, to the medium. […] The biological activity of each isolated conformation sensitive peptide is reconfirmed by isolation of conformation sensitive peptide encoding plasmids, re-transformation into yeast strain and analysis of HIS3 and lacZ gene expression in absence of histidine and in presence of target protein or non-target protein ligands in a spot test, as well as in a quantitative LacZ assay. […]

wild-type ERα = wild-type ERα (Homo sapiens, UniProt P03372); conditions: HeLa, ERE-luc, 24 H
Chain of wild-type ERα (P03372 whole entry): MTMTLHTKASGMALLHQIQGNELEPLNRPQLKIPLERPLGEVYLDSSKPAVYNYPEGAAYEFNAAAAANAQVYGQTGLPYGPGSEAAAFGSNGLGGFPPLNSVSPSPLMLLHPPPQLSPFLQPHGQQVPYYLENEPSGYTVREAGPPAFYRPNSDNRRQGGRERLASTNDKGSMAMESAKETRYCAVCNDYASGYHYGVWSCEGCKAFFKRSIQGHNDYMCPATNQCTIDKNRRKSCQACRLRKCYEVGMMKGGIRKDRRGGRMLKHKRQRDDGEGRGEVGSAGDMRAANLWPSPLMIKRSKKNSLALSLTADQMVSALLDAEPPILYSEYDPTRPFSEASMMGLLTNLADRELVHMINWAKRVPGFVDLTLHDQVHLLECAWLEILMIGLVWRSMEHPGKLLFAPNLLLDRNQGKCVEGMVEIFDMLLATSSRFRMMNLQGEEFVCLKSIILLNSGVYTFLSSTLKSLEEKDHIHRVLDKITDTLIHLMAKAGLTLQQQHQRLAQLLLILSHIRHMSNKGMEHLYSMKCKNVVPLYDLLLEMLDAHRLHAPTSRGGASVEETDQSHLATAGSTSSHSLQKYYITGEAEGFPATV
Method: Furthermore, the potential agonist and antagonist properties of these hits were investigated in HeLa cells by co-transfection of an ERE-luc reporter plasmid, in which the luciferase gene is under the control of the estrogen-responsive elements (ERE), and an expression plasmid encoding the wild-type ERα. Transfections were performed as previously described for the primary screening, and cells are inclubated for 24 H either in the presence of the chemical hits alone to test for their agonist activity, or in the presence of the hit together with 100 nM E2 to test for their antagonist activity.

bone cells = conditions: cited from earlier work

Chain of ERα (Homo sapiens, UniProt P03372) (P03372 311-547 limits assumed): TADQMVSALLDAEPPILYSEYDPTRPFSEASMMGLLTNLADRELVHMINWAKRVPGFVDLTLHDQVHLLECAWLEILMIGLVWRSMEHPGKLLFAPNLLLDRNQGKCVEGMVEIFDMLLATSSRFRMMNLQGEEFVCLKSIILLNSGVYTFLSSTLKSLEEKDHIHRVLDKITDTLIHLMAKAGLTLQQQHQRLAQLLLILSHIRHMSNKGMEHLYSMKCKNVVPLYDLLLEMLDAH

Compound | luciferase expression (FIG. 13) (ERα [2]) | peptide binding to ER in the presence of non-ER ligands (growth, lacZ) (ERα [1]) | peptide binding to ER on addition of ER ligands (growth under selective conditions) (ERα [1]) | reporter genes (His3 and LacZ) on interaction of peptide with ER in the un-liganded form (ERα [1]) | further results
9-cis retinoic acid | strong | – | – | – | effect of added ligand on growth and LacZ expression of yeast clones (dissociation of peptide/VP16AD from ERα) (ERα [1]): no effect; luciferase expression (FIG. 11) (ERα [2]): strong; effect of added ligand on growth of yeast clones (dissociation of peptide/VP16AD from RARα) [3]: suppresses the growth of 14 of these clones
C[C@]12CC[C@@H]3c4ccc(O)cc4C[C@@H](CCCCCCCCC[S+]([O-])CCCC(F)(F)C(F)(F)F)[C@H]3[C@@H]1CC[C@@H]2O (stereo partly drawn) [ICI182780] | preventing the expression of luciferase | – | – | – | luciferase expression upon addition of ligand (ERα [2]): strongly reduced
CC1=C(/C=C/C(C)=C/C=C/C(C)=C/C(=O)O)C(C)(C)CCC1 [all-trans-Retinoic Acid] | strong | – | – | – | effect of added ligand on growth of yeast clones (dissociation of peptide/VP16AD from RARα) [3]: suppresses the growth of 14 of these clones; effect of added ligand on growth of yeast clones (dissociation of peptide/VP16AD from RARα) ([3]; listed as AT-RA): selective dissociation of the peptide/VP16AD protein induced only by the AT-RA ligand
CN1C(=O)[C@]23CC4=CC=C[C@H](O)[C@H]4N2C(=O)[C@@]1(CO)SS3 [gliotoxin] | – | – | – | – | effect of added compound on yeast growth and HIS3/LacZ expression (dissociation of peptides from NS5B) [4]: shut-off of HIS3 and the prevention of growth of the yeast
NC(=O)c1ncn([C@@H]2O[C@H](CO)[C@@H](O)[C@H]2O)n1 [ribavirin] | – | – | – | – | effect of added compound on yeast growth and HIS3/LacZ expression (dissociation of peptides from NS5B) [4]: no effect on yeast growth
Estren | – | – | – | – | agonist activity (hit alone) (wild-type ERα): do not allow the identification; antagonist activity (hit together with 100 nM E2) (wild-type ERα): do not allow the identification; luciferase expression (FIG. 11) (ERα [2]): preventing the expression of luciferase; apoptosis of bone cells and effect on reproductive organs (bone cells): prevent apoptosis of bone cells without affecting the reproductive organs
F C T P I R M F Y R A P L W D L N K [peptide 30-2] | – | all clones are growing under selective conditions and stain positive for lacZ | clones are not growing under selective conditions | clones are growing under selective conditions and stain positive for lacZ | –
S C C T Q H V C Y R P R A Y R [peptide 5-21] | – | all clones are growing under selective conditions and stain positive for lacZ | clones are not growing under selective conditions | clones are growing under selective conditions and stain positive for lacZ | –
S I T T L F Y H A M F G F V P [peptide 9-23] | – | all clones are growing under selective conditions and stain positive for lacZ | clones are not growing under selective conditions | clones are growing under selective conditions and stain positive for lacZ | –
